Holding throughout (type): in vivo, Arabidopsis thaliana
Test [1] concerns proteins up-regulated by AtGA2ox4 overexpression. Put plainly: Two-dimensional electrophoresis of proteins of SEN::AtGA2ox4 mutant. The following applies: SEN::AtGA2ox4 mutant grown 30 days, 2-D electrophoresis, Table 2. How it is done: Proteins were isolated from the wild-type Arabidopsis thaliana (FIG. 13), the SEN::AtGA2ox4 mutant (FIG. 14), and the GA3-treated SEN::AtGA2ox4 mutant (FIG. 15), all grown for 30 days after germination, and analyzed for expression pattern by two-dimensional electrophoresis. Protein isolation for each plant was conducted as follows. Each plant was mashed in 10 volumes of a reagent comprising 7M urea, 2M thiourea, 4% (w/v) 3-[(3-cholamidopropy)dimethyammonio]-1-propanesulfonate (CHAPS), 1% (w/v) dithiothreitol (DTT), 2% (v/v) pharmalyte and 1 mM benzamidine, followed by heating at 100° C. for 10 min. After centrifugation at 15,000 rpm for 1 hour, the supernatant was used as a sample for two-dimensional electrophoresis. Protein quantities were determined using the Bradford method (Bradford et al., 1976). For primary isoelectric focusing (IEF), IPG strips were soaked at room temperature for 12-16 hrs in a reswelling solution comprising 7M urea, 2M thiourea, 2% 3-[(3-cholamidopropy)dimethylammonio]-1-propanesulfonate (CHAPS), 1% dithiothreitol (DTT) and 1% pharmalyte. Each protein sample was used in the amount of 200 μg per strip. […] The protein spots were quantified to examine a change in expression level by the analysis of the scanned images using the PDQuest software (version 7.0, BioRad). The quantity of each spot was normalized according to the total intensity of valid spots. […]

In test [2] the test system is AtGA20ox1, AtGA20ox2 and AtGA3ox1 expression. The test can be described thus: RT-PCR expression of gibberellin biosynthesis-related genes in SEN::AtGA2ox4 mutant. To be noted: FIG. 9. The method, then: Genes associated with GA 2-oxidase activity, flowering and a feedback mechanism of the gibberellin metabolism in the SEN::AtGA2ox4 mutant with a dwarfism phenotype were analyzed for expression patterns. In this regard, total RNA was isolated from flowers, roots, stems, leaves and siliques of the wild-type Arabidopsis thaliana and the SEN::AtGA2ox4 mutant, both grown for 30 days after germination, with the aid of RNasey Plant Mini Kit (QIAGEN, Germany). cDNA was synthesized from 1 μg of each RNA using Superscript III Reverse Transcriptase (INVITROGEN, USA) under the conditions of 65° C., 5 min; 50° C., 60 min; and 70° C., 15 min. Then, PCR was performed using the synthesized cDNAs as templates in the presence of the primers, specific for GA 2-oxidase and flowering genes, listed in Table 1, below. The PCR was initiated by denaturing the template DNA at 94° C. for 2 min and performed with 30 cycles of 94° C., 1 min; 55° C., 1.5 min; and 72° C., 1 min, followed by extension at 72° C. for 15 min. […]
An examination was made about whether the gene of the present invention is involved in the feedback mechanism of the gibberellin metabolism and thus in gibberellin catabolism. For this, AtGA20ox1 and AtGA20ox2, both coding for GA20-oxidase, and AtGA3ox1 coding for GA3-oxidase were analyzed for expression levels in the SEN::AtGA2ox4 mutant. […]

Test [3] deals with SEN::AtGA2ox4-9 and SEN::AtGA2ox4-10 dwarfism lines. Put plainly: Phenotype recovery of SEN::AtGA2ox4 mutant by treatment with GA3. The method, then: In order to examine whether the AtGA2ox4 gene is actually involved in gibberellin catabolism, the SEN::AtGA2ox4-9 and the SEN::AtGA2ox4-10 line, both showing dwarfism phenotypes, were grown for 30 days while 10^−4 M GA3 (Sigma, USA) was applied twice at intervals of one week starting from 12 days after germination. Treatment with the active gibberellin GA3 may recover the phenotype of the dwarfism-induced mutant in which gibberellin insufficiency was caused by the overexpression of the AtGA2ox4 gene, to that of the wild-type. Comparisons were made between the mutants treated with or without GA3 (FIGS. 10, 11 and 12). […] This was true of GA3-treated mutants. These facts allow an inference that the gene of the present invention plays an important role in dwarfism induction in plants, but is not involved in the control of flowering time.

With `C=C1C[C@]23C[C@@]1(O)CC[C@H]2[C@@]12C=C[C@H](O)[C@@](C)(C(=O)O1)[C@H]2[C@@H]3C(=O)O` [GA3], the “proteins up-regulated by AtGA2ox4 overexpression, after GA3 treatment” value in test [1] is given as “recovered to the phenotype of the wild-type”. In test [2], the “expression levels of AtGA20ox1, AtGA20ox2 and AtGA3ox1 after GA3 treatment” value is on record as “return the expression levels to those of the wild-type”. For the same molecule, the “phenotype of dwarfism-induced mutant lines after GA3 treatment” value in test [3] (10^-4 M GA3 applied twice at intervals of one week starting 12 days after germination, grown 30 days, SEN::AtGA2ox4-9 and -10 lines) is “recovered almost perfectly to the wild-type phenotype”. For the same molecule, in test [3] (GA3-treated SEN::AtGA2ox4 mutants), the “flowering time of GA3-treated mutants versus wild-type” value is reported as “not different in flowering time from the wild-type”.

The values above are taken from patent US20110131683A1, “Polypeptide Inducing Dwarfism of Plants, Polynucleotide Coding the Polypeptide, and Those Use” (GENOMINE, INC., priority 2007, published 2011).
